Data: patent publication US9012651B2, “TRPV3 modulators” (AbbVie Inc., priority 2011, dated 2015)
pIC50: −log10 of the molar value.

These compounds were tested against human TRPV3 receptors (Homo sapiens (Human), UniProt Q8NET8) (assay: Calcium flux assay (FLIPR TETRA), inhibition of the 2-APB response). Conditions: recombinant HEK293 cells stably expressing TRPV3, Calcium-4 dye, 2-APB at its EC80.
Chain of human TRPV3 receptors (Q8NET8 whole entry): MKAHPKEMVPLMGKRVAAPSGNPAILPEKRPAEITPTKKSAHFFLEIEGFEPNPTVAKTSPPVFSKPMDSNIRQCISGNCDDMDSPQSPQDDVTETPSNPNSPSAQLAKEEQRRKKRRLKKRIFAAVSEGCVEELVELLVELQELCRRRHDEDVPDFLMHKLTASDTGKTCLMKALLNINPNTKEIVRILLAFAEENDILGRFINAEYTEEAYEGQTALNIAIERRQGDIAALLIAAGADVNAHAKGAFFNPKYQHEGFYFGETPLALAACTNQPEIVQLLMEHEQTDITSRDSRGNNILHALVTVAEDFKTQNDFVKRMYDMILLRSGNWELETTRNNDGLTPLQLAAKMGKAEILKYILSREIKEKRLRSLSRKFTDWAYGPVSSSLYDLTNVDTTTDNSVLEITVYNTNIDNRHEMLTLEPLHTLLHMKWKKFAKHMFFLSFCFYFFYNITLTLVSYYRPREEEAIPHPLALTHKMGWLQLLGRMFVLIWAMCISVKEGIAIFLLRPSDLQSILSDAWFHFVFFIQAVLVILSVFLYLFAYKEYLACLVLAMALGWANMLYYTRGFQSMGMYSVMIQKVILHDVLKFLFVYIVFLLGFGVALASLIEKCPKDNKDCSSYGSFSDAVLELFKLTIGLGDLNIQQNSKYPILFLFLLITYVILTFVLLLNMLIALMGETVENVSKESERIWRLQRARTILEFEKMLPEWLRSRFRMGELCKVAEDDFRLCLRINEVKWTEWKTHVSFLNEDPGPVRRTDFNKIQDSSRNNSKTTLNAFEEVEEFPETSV
Format: cell-based
Outline: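 Responses are given relative to the maximal 2-APB signal in the absence of compound, using peak fluorescence over baseline. Measured by FLIPR Tetra calcium flux in stable human and mouse TRPV3 HEK293 cells after 90-120 min dark dye incubation.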
Work on CC(C)[C@H](CO)NCc1nc(N2CCc3c(F)cccc3C2)ccc1F [Example 97, (2R)-2-({[3-fluoro-6-(5-fluoro-3,4-dihydroisoquinolin-2(1H)-yl)pyridin-2-yl]methyl}amino)-3-methylbutan-1-ol] yielded a pIC50 of 6.96. CC(C)(O)CNCc1ccnc(-c2ccc(C(F)(F)F)cc2)n1 [Example 175, 2-methyl-1-[({2-[4-(trifluoromethyl)phenyl]pyrimidin-4-yl}methyl)amino]propan-2-ol] was tested, and the pIC50 was under 4.70. For OC[C@H]1[C@H]2CC[C@H](C2)[C@H]1NCc1ccnc(-c2ccc(C(F)(F)F)cc2)n1 [Example 170, {(1S,2S,3R,4R)-3-[({2-[4-(trifluoromethyl)phenyl]pyrimidin-4-yl}methyl)amino]bicyclo[2.2.1]hept-2-yl]methanol], the pIC50 was 5.21. With CC(O)C(C)NCc1ccnc(-c2ccc(C(F)(F)F)cc2)n1 (stereo not shown) [Example 148, 3-[({2-[4-(trifluoromethyl)phenyl]pyrimidin-4-yl}methyl)amino]butan-2-ol] the pIC50 was 5.73. OC1(CNCc2ccnc(-c3ccc(C(F)(F)F)cc3)n2)CCCCC1 [Example 178, 1-{[({2-[4-(trifluoromethyl)phenyl]pyrimidin-4-yl}methyl)amino]methyl}cyclohexanol] showed a pIC50 of under 4.70. CC(C)[C@H](CO)NCc1nc(-c2cnc(C(F)(F)F)nc2)ccc1F [Example 113, (2R)-2-[({3-fluoro-6-[2-(trifluoromethyl)pyrimidin-5-yl]pyridin-2-yl}methyl)amino]-3-methylbutan-1-ol] showed a pIC50 of 5.58. For CC(C)[C@H](CO)NCc1nc(-c2ccc(C(F)(F)F)c(Cl)c2)ccc1F [Example 47, (2R)-2-[({6-[3-chloro-4-(trifluoromethyl)phenyl]-3-fluoropyridin-2-yl}methyl)amino]-3-methylbutan-1-ol], the pIC50 was 6.54. With CC(C)[C@H](CO)NCc1cc(C(F)(F)F)cc(-c2ccc(C(F)(F)F)nc2)n1 [Example 118, (2R)-2-({[4,6′-bis(trifluoromethyl)-2,3′-bipyridin-6-yl]methyl}amino)-3-methylbutan-1-ol] the pIC50 was under 4.70. In the case of CCC[C@H](CO)NCc1ccnc(-c2ccc(C(F)(F)F)cc2)n1 [Example 141, (2R)-2-[({2-[4-(trifluoromethyl)phenyl]pyrimidin-4-yl}methyl)amino]pentan-1-ol], the pIC50 was 5.31. For OCC[C@H](NCc1ccnc(-c2ccc(C(F)(F)F)cc2)n1)c1ccccc1 [Example 163, (3S)-3-phenyl-3-[({2-[4-(trifluoromethyl)phenyl]pyrimidin-4-yl}methyl)amino]propan-1-ol], the pIC50 was under 4.70. CC(O)C(C)NCc1ccnc(-c2ccc(C(F)(F)F)nc2)n1 (stereo not shown) [Example 190, 3-[({2-[6-(trifluoromethyl)pyridin-3-yl]pyrimidin-4-yl}methyl)amino]butan-2-ol] showed a pIC50 of 5.09. For CC(C)(O)[C@H](CO)NCc1ccnc(-c2ccc(S(=O)(=O)C(F)(F)F)cc2)n1 [Example 211, (2S)-3-methyl-2-{[(2-{4-[(trifluoromethyl)sulfonyl]phenyl}pyrimidin-4-yl)methyl]amino}butane-1,3-diol], the pIC50 was under 4.70. In the case of CC(C)[C@@H](CO)NCc1cccc(-c2ccc(C(F)(F)F)cc2)n1 [Example 3, (2S)-3-methyl-2-[({6-[4-(trifluoromethyl)phenyl]pyridin-2-yl}methyl)amino]butan-1-ol], the pIC50 was 5.03. OCC1(NCc2ccnc(-c3ccc(C(F)(F)F)cc3)n2)CCCC1 [Example 133, {1-[({2-[4-(trifluoromethyl)phenyl]pyrimidin-4-yl}methyl)amino]cyclopentyl}methanol] gave a pIC50 of 5.03. CC(C)(CO)NCc1ccnc(-c2ccc(C(F)(F)F)cc2)n1 [Example 136, 2-methyl-2-[({2-[4-(trifluoromethyl)phenyl]pyrimidin-4-yl}methyl)amino]propan-1-ol] was tested, and the pIC50 was under 4.70. Work on CC(C)[C@@H](CO)NCc1ccnc(-c2ccc(C(F)(F)F)cc2)n1 [Example 155, (2S)-3-methyl-2-[({2-[4-(trifluoromethyl)phenyl]pyrimidin-4-yl}methyl)amino]butan-1-ol] yielded a pIC50 of under 4.70.
